These results are taken from patent US20240400577A1, “MODULATORS OF PROTEIN KINASES” (VIBLIOME THERAPEUTICS, LLC, priority 2021, published 2024).

SMILES strings stand for the structures.

What all share (assay): Kinase panel enzymatic inhibition assay (Nanosyn)
Assay type in all cases: biochemical
Holding throughout (conditions): compound 5 μM; ATP at Km; 30-minute pre-incubation

One assay deals with T1, PDGFRb (Homo sapiens, UniProt P09619).
T1 construct: Nanosyn (contract laboratory that ran the panel)
The method, boiled down: (§1)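 Inhibition is expressed as percent at 5 μM or as IC50, with ATP set at the Km of each kinase and a 30-minute compound pre-incubation. Detection used an accepted enzymatic format such as Caliper mobility shift.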

In a further assay the test system is EPH. The method, boiled down:
as §1

The next assay addresses T2, MAP4K2 (Homo sapiens, UniProt Q12851).
T2 construct: purchased Nanosyn (contract screening)
T2 sequence (Q12851 1-820): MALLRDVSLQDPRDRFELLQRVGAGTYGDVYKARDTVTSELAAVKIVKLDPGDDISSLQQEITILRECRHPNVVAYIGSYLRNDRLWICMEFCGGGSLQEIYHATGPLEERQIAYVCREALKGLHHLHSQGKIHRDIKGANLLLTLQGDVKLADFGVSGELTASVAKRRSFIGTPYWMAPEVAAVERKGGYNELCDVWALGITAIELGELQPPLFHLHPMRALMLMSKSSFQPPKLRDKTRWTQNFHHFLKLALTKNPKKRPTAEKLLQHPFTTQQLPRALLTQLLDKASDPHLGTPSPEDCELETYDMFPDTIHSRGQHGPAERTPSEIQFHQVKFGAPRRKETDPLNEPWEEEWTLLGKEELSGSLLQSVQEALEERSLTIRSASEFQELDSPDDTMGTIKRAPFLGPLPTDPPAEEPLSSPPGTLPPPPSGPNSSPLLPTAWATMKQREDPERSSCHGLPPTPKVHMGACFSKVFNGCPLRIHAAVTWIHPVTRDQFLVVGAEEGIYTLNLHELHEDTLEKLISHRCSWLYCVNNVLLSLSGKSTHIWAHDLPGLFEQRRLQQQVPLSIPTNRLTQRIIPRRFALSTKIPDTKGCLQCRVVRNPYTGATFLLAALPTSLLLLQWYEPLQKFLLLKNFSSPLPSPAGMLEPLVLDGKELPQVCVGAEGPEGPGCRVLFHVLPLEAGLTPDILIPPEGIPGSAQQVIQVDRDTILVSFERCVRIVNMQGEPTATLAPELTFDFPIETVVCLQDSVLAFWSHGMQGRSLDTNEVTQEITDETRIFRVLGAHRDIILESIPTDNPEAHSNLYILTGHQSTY
The method, boiled down: as §1

The target in a further assay is T3, MNK2 (Homo sapiens, UniProt Q9HBH9).
T3 construct: Nanosyn (contract laboratory that ran the panel)
The method, boiled down: as §1

In a further assay the target is T4, LYNb (Homo sapiens, UniProt P07948).
T4 construct: purchased Nanosyn (contract screening)
The method, boiled down: as §1

The target of another assay is T5, CRAF (Homo sapiens, UniProt P04049).
T5 construct: purchased Nanosyn (contract screening)
The method, boiled down:
as §1

Another assay has as its target T6, TAOK2 (Homo sapiens, UniProt Q9UL54).
T6 construct: Nanosyn (contract laboratory that ran the panel)
T6 sequence (Q9UL54 1-1235): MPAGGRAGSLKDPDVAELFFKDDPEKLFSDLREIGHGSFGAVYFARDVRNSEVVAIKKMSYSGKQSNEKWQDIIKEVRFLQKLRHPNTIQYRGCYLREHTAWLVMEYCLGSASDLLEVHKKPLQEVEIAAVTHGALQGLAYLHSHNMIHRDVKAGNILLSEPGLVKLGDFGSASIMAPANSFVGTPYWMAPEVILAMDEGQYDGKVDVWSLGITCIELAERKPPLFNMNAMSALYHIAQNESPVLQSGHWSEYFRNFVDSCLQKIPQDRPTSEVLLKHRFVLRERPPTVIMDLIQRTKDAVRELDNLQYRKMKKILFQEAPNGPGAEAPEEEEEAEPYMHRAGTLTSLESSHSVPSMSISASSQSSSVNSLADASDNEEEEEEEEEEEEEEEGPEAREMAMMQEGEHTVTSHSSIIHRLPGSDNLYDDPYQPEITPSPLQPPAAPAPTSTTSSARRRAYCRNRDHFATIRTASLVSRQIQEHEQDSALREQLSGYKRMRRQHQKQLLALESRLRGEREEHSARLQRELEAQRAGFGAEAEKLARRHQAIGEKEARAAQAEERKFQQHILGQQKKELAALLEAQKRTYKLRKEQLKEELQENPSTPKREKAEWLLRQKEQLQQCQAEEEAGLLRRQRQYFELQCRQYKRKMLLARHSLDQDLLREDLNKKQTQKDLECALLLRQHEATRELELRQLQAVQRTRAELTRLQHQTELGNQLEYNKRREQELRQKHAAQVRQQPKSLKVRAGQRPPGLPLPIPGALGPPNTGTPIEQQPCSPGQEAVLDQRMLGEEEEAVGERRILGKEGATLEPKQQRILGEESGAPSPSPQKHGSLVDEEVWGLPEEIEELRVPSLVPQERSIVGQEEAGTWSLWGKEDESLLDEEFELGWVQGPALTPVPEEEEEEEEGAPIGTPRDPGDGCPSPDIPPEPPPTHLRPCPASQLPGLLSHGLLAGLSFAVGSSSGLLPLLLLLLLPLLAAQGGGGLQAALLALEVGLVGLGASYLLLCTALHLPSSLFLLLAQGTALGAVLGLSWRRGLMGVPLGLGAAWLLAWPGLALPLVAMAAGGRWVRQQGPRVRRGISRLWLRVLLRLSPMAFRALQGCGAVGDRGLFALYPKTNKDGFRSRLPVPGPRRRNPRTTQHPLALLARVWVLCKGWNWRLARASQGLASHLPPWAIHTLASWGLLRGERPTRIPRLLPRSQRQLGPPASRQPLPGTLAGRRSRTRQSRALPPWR
The method, boiled down:
as §1

The next assay addresses T7, DDR1 (Homo sapiens, UniProt Q08345).
T7 construct: purchased Nanosyn (contract screening)
The method, boiled down: as §1

A further assay concerns the target T8, ERBB4 (Homo sapiens, UniProt Q15303).
T8 construct: purchased Nanosyn (contract screening)
The method, boiled down:
as §1

T7 sequence (Q08345 19-913): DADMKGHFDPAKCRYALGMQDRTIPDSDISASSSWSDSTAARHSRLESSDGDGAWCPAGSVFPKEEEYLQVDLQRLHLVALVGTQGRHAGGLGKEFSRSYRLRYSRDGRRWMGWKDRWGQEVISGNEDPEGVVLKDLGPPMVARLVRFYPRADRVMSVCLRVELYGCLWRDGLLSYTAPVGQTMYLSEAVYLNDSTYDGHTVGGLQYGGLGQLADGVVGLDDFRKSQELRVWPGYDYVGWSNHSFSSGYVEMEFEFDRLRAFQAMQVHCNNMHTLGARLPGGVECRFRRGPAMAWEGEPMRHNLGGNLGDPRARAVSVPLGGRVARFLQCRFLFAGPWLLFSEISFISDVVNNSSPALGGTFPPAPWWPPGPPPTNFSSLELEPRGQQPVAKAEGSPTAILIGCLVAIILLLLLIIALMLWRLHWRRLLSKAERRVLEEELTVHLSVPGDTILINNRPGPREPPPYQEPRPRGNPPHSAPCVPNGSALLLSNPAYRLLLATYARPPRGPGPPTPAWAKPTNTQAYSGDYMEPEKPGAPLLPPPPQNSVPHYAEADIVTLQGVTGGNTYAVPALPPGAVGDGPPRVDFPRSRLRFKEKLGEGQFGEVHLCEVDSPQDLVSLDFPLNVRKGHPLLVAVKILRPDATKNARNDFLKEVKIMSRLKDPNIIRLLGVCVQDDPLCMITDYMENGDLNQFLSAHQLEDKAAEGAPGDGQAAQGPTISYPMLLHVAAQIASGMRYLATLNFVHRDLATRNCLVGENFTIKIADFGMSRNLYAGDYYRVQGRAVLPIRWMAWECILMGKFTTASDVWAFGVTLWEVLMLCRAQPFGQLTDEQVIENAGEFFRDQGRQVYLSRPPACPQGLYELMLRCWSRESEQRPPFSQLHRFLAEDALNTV
T1 sequence (P09619 33-1106): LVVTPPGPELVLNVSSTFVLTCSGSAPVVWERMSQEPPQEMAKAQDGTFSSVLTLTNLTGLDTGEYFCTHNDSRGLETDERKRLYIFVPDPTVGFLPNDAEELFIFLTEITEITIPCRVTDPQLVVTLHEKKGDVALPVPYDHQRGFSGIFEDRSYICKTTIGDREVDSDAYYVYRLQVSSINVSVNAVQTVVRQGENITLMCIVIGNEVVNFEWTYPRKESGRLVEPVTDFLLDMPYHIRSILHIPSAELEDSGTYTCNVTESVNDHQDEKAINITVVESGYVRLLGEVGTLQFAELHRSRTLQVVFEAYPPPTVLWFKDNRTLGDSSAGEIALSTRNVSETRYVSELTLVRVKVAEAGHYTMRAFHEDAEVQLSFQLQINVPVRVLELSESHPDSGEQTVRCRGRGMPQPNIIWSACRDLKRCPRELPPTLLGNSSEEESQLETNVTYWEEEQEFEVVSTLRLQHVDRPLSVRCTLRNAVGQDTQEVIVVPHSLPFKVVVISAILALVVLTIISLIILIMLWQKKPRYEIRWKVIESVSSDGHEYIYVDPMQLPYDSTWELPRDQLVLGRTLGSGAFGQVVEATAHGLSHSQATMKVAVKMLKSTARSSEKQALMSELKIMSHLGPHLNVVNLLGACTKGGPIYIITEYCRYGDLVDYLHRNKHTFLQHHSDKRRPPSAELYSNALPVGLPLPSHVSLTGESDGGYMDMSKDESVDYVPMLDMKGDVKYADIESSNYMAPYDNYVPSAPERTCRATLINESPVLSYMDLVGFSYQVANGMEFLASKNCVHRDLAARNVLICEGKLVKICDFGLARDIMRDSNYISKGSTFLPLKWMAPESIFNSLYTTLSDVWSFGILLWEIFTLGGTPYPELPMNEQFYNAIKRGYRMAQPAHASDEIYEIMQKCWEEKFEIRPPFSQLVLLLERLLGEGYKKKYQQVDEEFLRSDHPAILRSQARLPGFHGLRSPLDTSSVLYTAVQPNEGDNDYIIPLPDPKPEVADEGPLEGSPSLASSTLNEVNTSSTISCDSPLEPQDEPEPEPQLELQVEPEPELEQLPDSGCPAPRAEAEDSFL
T5 sequence (P04049 whole entry): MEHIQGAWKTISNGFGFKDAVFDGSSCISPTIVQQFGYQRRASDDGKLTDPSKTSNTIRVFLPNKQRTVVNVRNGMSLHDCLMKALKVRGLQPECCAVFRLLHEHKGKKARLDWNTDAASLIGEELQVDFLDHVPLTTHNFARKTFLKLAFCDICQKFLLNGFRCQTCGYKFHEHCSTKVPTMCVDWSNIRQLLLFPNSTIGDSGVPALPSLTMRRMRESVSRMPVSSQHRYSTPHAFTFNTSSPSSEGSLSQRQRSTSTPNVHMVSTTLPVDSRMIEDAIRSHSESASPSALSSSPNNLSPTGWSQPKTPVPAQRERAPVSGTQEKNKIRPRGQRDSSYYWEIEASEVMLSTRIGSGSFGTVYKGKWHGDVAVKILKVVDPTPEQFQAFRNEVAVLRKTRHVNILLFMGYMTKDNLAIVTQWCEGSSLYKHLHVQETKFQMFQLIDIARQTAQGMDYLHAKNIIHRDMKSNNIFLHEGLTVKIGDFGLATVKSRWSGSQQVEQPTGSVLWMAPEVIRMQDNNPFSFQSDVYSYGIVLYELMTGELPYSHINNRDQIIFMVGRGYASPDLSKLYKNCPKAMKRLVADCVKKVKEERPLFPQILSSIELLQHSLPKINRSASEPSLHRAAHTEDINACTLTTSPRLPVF
T3 sequence (Q9HBH9 whole entry): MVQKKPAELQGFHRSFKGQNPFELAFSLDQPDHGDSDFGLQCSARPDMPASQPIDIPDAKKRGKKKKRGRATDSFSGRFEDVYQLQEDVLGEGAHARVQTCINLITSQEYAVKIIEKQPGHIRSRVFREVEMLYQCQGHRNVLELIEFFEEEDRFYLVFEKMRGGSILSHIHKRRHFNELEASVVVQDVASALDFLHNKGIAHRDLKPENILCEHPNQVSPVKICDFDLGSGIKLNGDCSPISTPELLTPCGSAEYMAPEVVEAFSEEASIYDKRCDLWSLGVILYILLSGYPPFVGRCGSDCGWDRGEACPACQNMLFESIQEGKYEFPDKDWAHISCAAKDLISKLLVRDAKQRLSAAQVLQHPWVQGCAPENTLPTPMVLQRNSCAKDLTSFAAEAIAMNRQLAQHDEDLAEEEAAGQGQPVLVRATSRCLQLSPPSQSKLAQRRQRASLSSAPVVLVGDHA
T4 sequence (P07948 1-491 isoform P07948-2): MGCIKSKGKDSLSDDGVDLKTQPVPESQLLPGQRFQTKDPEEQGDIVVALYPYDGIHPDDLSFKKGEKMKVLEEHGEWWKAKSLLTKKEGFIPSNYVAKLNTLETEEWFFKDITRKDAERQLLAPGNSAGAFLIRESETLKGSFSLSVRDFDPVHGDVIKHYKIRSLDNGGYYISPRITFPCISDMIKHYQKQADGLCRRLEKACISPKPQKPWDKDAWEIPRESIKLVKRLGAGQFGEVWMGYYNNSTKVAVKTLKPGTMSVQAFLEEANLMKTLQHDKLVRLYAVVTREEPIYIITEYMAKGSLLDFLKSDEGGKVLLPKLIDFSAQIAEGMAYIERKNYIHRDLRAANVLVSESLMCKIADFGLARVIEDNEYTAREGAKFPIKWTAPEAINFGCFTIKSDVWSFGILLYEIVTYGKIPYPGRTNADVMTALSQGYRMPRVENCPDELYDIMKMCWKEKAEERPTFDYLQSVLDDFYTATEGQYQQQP
T8 sequence (Q15303 26-1308): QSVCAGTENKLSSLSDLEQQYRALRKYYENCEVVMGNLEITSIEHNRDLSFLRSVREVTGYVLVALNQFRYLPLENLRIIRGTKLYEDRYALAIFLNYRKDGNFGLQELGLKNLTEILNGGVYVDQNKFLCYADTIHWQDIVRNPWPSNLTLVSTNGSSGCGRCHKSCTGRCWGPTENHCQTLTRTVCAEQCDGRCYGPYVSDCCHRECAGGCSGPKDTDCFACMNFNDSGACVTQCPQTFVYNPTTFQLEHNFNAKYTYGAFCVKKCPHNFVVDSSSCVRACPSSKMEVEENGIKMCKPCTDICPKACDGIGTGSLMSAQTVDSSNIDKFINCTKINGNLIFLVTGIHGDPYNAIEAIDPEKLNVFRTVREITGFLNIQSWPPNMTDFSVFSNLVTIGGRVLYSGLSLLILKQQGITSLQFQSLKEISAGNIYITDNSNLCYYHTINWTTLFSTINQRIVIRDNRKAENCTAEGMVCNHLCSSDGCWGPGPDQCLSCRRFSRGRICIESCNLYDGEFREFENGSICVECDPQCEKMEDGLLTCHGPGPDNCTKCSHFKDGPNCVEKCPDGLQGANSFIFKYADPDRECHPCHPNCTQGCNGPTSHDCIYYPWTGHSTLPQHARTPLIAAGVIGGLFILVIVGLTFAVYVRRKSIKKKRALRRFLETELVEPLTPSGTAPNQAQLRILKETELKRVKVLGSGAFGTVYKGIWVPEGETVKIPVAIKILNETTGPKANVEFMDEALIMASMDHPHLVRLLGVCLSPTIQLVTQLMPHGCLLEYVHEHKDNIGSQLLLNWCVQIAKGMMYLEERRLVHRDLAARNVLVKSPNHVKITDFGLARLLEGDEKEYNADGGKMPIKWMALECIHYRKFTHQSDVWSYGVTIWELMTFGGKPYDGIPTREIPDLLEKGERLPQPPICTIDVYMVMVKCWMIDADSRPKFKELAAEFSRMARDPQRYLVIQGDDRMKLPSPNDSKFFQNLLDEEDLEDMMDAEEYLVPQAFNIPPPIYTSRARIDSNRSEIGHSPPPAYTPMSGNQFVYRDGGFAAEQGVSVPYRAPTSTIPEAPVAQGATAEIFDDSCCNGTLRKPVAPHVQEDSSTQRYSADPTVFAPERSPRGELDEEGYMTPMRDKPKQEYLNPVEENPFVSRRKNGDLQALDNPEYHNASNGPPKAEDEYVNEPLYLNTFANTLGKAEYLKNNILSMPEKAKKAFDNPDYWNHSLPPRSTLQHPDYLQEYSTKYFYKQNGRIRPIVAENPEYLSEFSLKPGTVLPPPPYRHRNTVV

In the case of `CSc1cc(C(=O)Nc2cc(Oc3ccnc(C(=O)NC4CNC4)c3)ccc2F)nn1-c1ccc(F)cc1` [Ex8, N-(azetidin-3-yl)-4-(4-fluoro-3-(1-(4-fluorophenyl)-5-(methylthio)-1H-pyrazole-3-carboxamido)phenoxy)picolinamide], the inhibition at 5 µM is below 79% at PDGFRb; 80 to 89% on MAP4K2; 80 to 89% against MNK2; below 79% at LYNb; at least 95% at CRAF; below 79% on TAOK2. Further, the inhibition at 5 µM against DDR1 and on ERBB4 was below 79% in each case. Also, in the assay on EPH, the “kinase inhibition, EPH” value is “D (D=79% and less)”.

For the compound `CNC(=O)c1cc(Oc2ccc(F)c(NC(=O)c3cc([S+](C)[O-])n(-c4ccc(F)cc4)n3)c2)ccn1` (stereo not drawn) [Ex7, 4-(4-fluoro-3-(1-(4-fluorophenyl)-5-(methylsulfinyl)-1H-pyrazole-3-carboxamido)phenoxy)-N-methylpicolinamide], the inhibition at 5 µM on PDGFRb was below 79%; against MAP4K2 it was below 79%; at MNK2, below 79%; against LYNb it was below 79%; against CRAF it was at least 95%; at TAOK2 it was below 79%. The inhibition at 5 µM against DDR1 and at ERBB4 was below 79% in each case. Moreover, the “kinase inhibition, EPH” value in the assay with EPH is “D (D=79% and less)”.

Turning to `Cc1ccc(NC(=O)c2cc([S+](C)[O-])n(-c3ccc(F)cc3)n2)cc1-c1cc(OCCO)nc(N2CCOCC2)c1` (stereo not drawn) [Ex10, 1-(4-fluorophenyl)-N-(3-(2-(2-hydroxyethoxy)-6-morpholinopyridin-4-yl)-4-methylphenyl)-5-(methylsulfinyl)-1H-pyrazole-3-carboxamide], the inhibition at 5 µM on PDGFRb was below 79%; against MAP4K2, below 79%; against MNK2, below 79%; on LYNb, below 79%; on CRAF, at least 95%; on TAOK2 it was 90 to 94%. In addition, the inhibition at 5 µM at DDR1 is at least 95%; at ERBB4 it was below 79%. Moreover, the “kinase inhibition, EPH” value in the assay on EPH was “D (D=79% and less)”.

With `Cc1ccc(NC(=O)c2cc(S(C)(=O)=O)n(-c3ccc(F)cc3)n2)cc1-c1cc(OCCO)nc(N2CCOCC2)c1` [Ex9, 1-(4-fluorophenyl)-N-(3-(2-(2-hydroxyethoxy)-6-morpholinopyridin-4-yl)-4-methylphenyl)-5-(methylsulfonyl)-1H-pyrazole-3-carboxamide], the inhibition at 5 µM against PDGFRb was below 79%; at MAP4K2, below 79%; at MNK2, below 79%; at LYNb it was below 79%; against CRAF, at least 95%; against TAOK2 it was at least 95%. Further, the results for the inhibition at 5 µM on DDR1 and at ERBB4 were at least 95% and below 79%, respectively. Also, the “kinase inhibition, EPH” value in the assay with EPH was “D (D=79% and less)”.

As for `Cc1ccc(NC(=O)c2cc(S(C)(=O)=O)n(-c3ccc(F)cc3)n2)cc1Nc1ccc2ncn(C)c(=O)c2c1` [Ex4, 1-(4-fluorophenyl)-N-(4-methyl-3-((3-methyl-4-oxo-3,4-dihydroquinazolin-6-yl)amino)phenyl)-5-(methylsulfonyl)-1H-pyrazole-3-carboxamide], the inhibition at 5 µM at PDGFRb was 80 to 89%; against MAP4K2 it was below 79%; against MNK2 it was below 79%; against LYNb, below 79%; on CRAF, at least 95%; on TAOK2, below 79%. The inhibition at 5 µM against DDR1 and against ERBB4 was below 79% throughout. Moreover, the “kinase inhibition, EPH” value in the assay on EPH was “D (D=79% and less)”.

For orientation: inhibition means the percentage by which the read-out fell short of the control. Higher therefore signals a response far below the control.
